Assay results from patent US20100003217A1, “Compounds and Pharmaceutical Compositions for the Treatment of Viral Infections” (priority 2008, published 2010).

Assays:
[1] = system: HCV genotype 1b replicon (Zluc cells); assay: HCV luciferase replicon assay; assay type: cell-based, hepatitis C virus; conditions: 3 days
Experimental: The HCV luciferase replicon assay measures the ability of a test compound to inhibit HCV replication in cell culture after 3 days of treatment in a human hepatoma cell line (Huh-7) bearing the HCV genotype 1b replicon and a luciferase-neomycin phosphotransferase fusion gene. The inhibition of HCV replication was measured by quantification of luciferase protein expression. The HCV luciferase replicon was constructed by fusing a luciferase gene to the amino terminus of the neomycin phosphotransferase gene of the ZS11 HCV replicon. The ZS11 HCV replicon (Zhu Q, Guo J-T, and Seeger C, 2003) is derived from the SP1 replicon, but contains three cell culture-adapted mutations: E1202G (NS3), S22041 (NS5A), and D2254E (NS5A). These mutations allow for efficient in vitro replication. The luciferase reporter gene was amplified from the pGL4.13[luc2/SV40] vector (Promega Corp.). The replicon resulting from the luciferase-neomycin fusion (ZS11-luc) was stably-transfected into Huh-7 cells, yielding the Zluc cell line.
(§1) The luciferase replicon assay is summarized as follows: Solid white 96-well tissue culture plates (BD Falcon) were seeded with Zluc cells. Antiviral compound solutions were made up freshly in medium as 2×-concentrated stocks. Eight additional 3-fold drug dilutions were prepared from these stocks in medium for a total of 9 dilutions. At least four hours after Zluc cells were seeded, drug treatment was initiated by adding one volume of each 2×-concentrated drug dilution to one volume of cells/medium in the tissue culture plates. Cells were then incubated for 3 days at 37° C./5% CO2.
The media/compound was then removed from the plates and the ONE-glo Luciferase assay reagent (Promega) was added to each well. The assay plates were shaken for 3 minutes at room temperature and luciferase activity for each well was measured with a 1 sec read time on the Victor^3V multilabel counter using a 700 nm cut-off filter (Perkin Elmer). EC50 values were calculated from dose response curves from the resulting best-fit equations determined by Microsoft Excel and XLfit 4.1 software.

[2] = system: GS4.1 cells; assay: Cytotoxicity assay (MTS), GS4.1 cells; assay type: cell-based, human; conditions: 3 days (NS4A-ELISA Assay)
Experimental: The cytotoxicity assay measures the viability of cells after treatment with a test compound for 3 days in either GS4.1 cells or Zluc cells. […] The cytotoxicity assay is summarized as follows. Ninety-six-well tissue culture plates were seeded with GS4.1 or Zluc cells. Antiviral compound solutions were made up freshly in medium as 2×-concentrated stocks. Eight additional 3-fold drug dilutions were prepared from these stocks in medium for a total of 9 dilutions. At least four hours after the cells were seeded, drug treatment was initiated by adding one volume of each 2×-concentrated drug dilution to one volume of cells/medium in the tissue culture plates. Cells were then incubated for 3 days at 37° C./5% CO2. After 3 days of treatment, the CellTiter 96® Aqueous One Solution cell proliferation assay (Promega) was performed by adding the MTS solution to each well. The plates were then incubated at 37° C./5% CO2 for 3.5 hours. Plates were then read in a Victor^3V 1420 multilabel counter (Perkin Elmer) and CC50 concentrations were determined using Microsoft Excel and XLfit 4.1 software.

[3] = system: HCV genotype 1b replicon (GS4.1 cells); assay: HCV replicon assay (NS4A ELISA); assay type: cell-based, hepatitis C virus; conditions: 3 days
Experimental: The biological activity of Compound 1, diastereomer 1 and diastereomer 2 was measured by monitoring expression of the NS4A protein by enzyme-linked immunosorbent assay (ELISA) and by luciferase assay as described below:
The HCV replicon assay measures the ability of a test compound to inhibit HCV replication in cell culture after 3 days of treatment in a human hepatoma cell line (Huh-7) bearing the HCV genotype 1b replicon (GS4.1 cells). The inhibition of HCV replication was measured by quantification of viral NS4A protein using an enzyme-linked immunosorbent assay (ELISA). […] Additionally, the replicon contains the neomycin phosphotransferase gene under the control of the HCV promoter (Source: Dr. Christoph Seeger, Fox Chase Cancer Center, Philadelphia, Pa.).
as §1, with “The NS4A ELISA” for “The luciferase replicon”, “as follows. Ninety-six-well” for “as follows: Solid white 96-well”, “plates” for “plates (BD Falcon)”, “with GS4.1” for “with Zluc”, “after GS4.1” for “after Zluc”, “each 2× concentrated” for “each 2×-concentrated”
The media/compound was then removed from the plates and cells were fixed with acetone:methanol, washed three times with a wash solution, and then blocked for 1 hour with 10% fetal bovine serum in a balanced salt solution. Cells were washed three times and incubated with an anti-hepatitis C NS4A monoclonal antibody (Virogen Corp.) for 2 hours at 37° C. […] The reaction was stopped with diluted sulfuric acid (Mallinckrodt Chemicals) and absorbance measured on a Victor^3V 1420 multilabel counter (Perkin Elmer). EC50 values were calculated from dose response curves from the resulting best-fit equations determined by Microsoft Excel and XLfit 4.1 software.

[4] = Incubation with human liver cytosol; assay type: in vitro ADME; conditions: human cytosol 1 mg/mL, 2 hours, 10 μM
Experimental: (§2) Pooled liver cytosol (1.0 mg protein/mL) suspended in incubation buffer (0.1 M potassium phosphate, pH 7.4) was incubated for 2 hours at 37° C. with 10 μM Compound 1 from a stock solution in DMSO (final DMSO concentration was 0.1%); reaction was initiated with the addition of test article. Incubations with no protein served as control. Reactions were terminated by the addition of 0.1 mL of stop solution (acetonitrile). The samples were vortex-mixed for 30 sec and then centrifuged at 10,000×g for 10 min. The supernatant was dried using a Labconco CentriVap concentrator and the dry residue reconstituted in water, transferred to an HPLC glass vial and analyzed by HPLC-UV method 2 (described above).
(§3) Metabolic stability of the proposed metabolites was conducted by incubating the chemically synthesized standards Compound 2, Compound 4 and Compound 3 as described above for Compound 1. When possible, formation of Compound 5 was verified by incubating samples with alkaline phosphatase (10 U) for 60 min at 37° C.

[5] = Incubation with rat liver cytosol; assay type: in vitro ADME; conditions: rat cytosol 1 mg/mL, 2 hours, 10 μM
Experimental: as §2, §3

[6] = Stability in monkey liver microsomes; assay type: in vitro ADME; conditions: monkey microsomes 1 mg/mL, 60 min, 50 μM
Experimental: (§4) Disappearance of parent Compound 1 was used to evaluate the in vitro metabolism thereof. Relative levels of unchanged Compound 1 were measured by HPLC-UV method 1. Residual Compound 1 is reported as percent difference from time zero or control. The HPLC-UV system was as follows:
(§5) Incubations with liver microsomes or cytosol were conducted in a final volume of 0.1 mL per incubation time point. […] DMSO (final DMSO concentration was 0.1%) was incubated at 37° C. from 0-60 min with pooled microsomal protein (1.0 mg/mL), suspended in incubation buffer (0.1 M potassium phosphate, pH 7.4, 5 mM MgCl2, and 0.1 mM EDTA). The microsomal reaction was initiated by the addition of NADPH (3 mM final concentration). Incubations with (a) no protein or (b) no NADPH served as controls. Reactions were terminated by the addition of 0.2 mL of stop solution (acetonitrile). The samples were vortex-mixed for 30 sec and then centrifuged at 10,000×g for 10 min. The supernatant was dried using a Labconco CentriVap concentrator and the dry residue reconstituted in water, transferred to an HPLC glass vial and analyzed by HPLC-UV method 1 (described above).
as §3

[7] = Stability in human liver microsomes; assay type: in vitro ADME; conditions: human microsomes 1 mg/mL, 60 min, 50 μM
Experimental: as §4
Incubations with liver microsomes or cytosol were conducted in a final volume of 0.1 mL per incubation time point. […] The microsomal reaction was initiated by the addition of NADPH (3 mM final concentration). Incubations with (a) no protein or (b) no NADPH served as controls. Reactions were terminated by the addition of 0.2 mL of stop solution (acetonitrile). The samples were vortex-mixed for 30 sec and then centrifuged at 10,000×g for 10 min. The supernatant was dried using a Labconco CentriVap concentrator and the dry residue reconstituted in water, transferred to an HPLC glass vial and analyzed by HPLC-UV method 1 (described above).
as §3

[8] = system: pig liver esterase; assay: Incubation with pig liver esterase; assay type: in vitro ADME; conditions: Esterase 14 U, 60 min, 10 μM
Experimental: as §2, with “Pig” for “Pooled”, “esterase (14 U)” for “cytosol (1.0 mg protein/mL)”, “60 min” for “2 hours”, “controls.” for “control.”
as §3

[9] = Stability in rat liver microsomes; assay type: in vitro ADME; conditions: rat microsomes 1 mg/mL, 60 min, 50 μM
Experimental: as §4, §5, §3

[10] = Incubation with monkey liver cytosol; assay type: in vitro ADME; conditions: monkey cytosol 1 mg/mL, 2 hours, 10 μM
Experimental: as §2, §3

Residual compound following incubation with liver cytosol [4] [%] | Residual compound following incubation with liver cytosol [5] [%] | % Residual compound following incubation with liver microsomes ([6]; NADPH) [%] | % Residual compound following incubation with liver microsomes ([6]; No Cofactor) [%] | % Residual compound following incubation with liver microsomes ([7]; NADPH) [%] | % Residual compound following incubation with liver microsomes ([7]; No Cofactor) [%] | Residual compound following incubation with pig liver esterase [8] [%] | % Residual compound following incubation with liver microsomes ([9]; NADPH) [%] | % Residual compound following incubation with liver microsomes ([9]; No Cofactor) [%] | Residual compound following incubation with liver cytosol [10] [%] | Compound | EC50 [1] [nM] | CC50 [2] [nM] | EC50 [3] [nM]
 |  |  |  |  |  |  |  |  |  | CC(C)(CO)C(=O)SCCOP(=O)(NCc1ccccc1)OC[C@H]1O[C@@H](n2cnc3c(=O)[nH]c(N)nc32)[C@](C)(O)[C@@H]1O (single isomer, unassigned; diastereomer 1) [Diastereomer 1] | 165 ± 23 | > 100000 | 704 ± 372
100 | 101 | 83 | 100 | 93 | 100 | 100 | 89 | 100 | 103 | C[C@@]1(O)[C@H](O)[C@@H](COP(N)(=O)O)O[C@H]1n1cnc2c(=O)[nH]c(N)nc21 [Compound 4, {9-[(2R)2-C-methyl-β-D-ribo-furanosyl]-guanin}-5′-yl phosphoramidate] |  |  | 
